Assay results: patent US7462598B2, “Antimicrobial theta defensins, analogs thereof, and methods of use” (priority 2002, dated 2008)
Marks after values point to notes of the source that are not given here. Bridge positions count the residues as written; N and C are the ends. Peptide text beside a SMILES is read from it.

Experiments:
[1] = system: S. aureus 502a; assay: Cell-suspension microbicidal assay (MMC); type: cell-based, Staphylococcus aureus; conditions: for MMC, S. aureus: lowest concentration that reduced cell viability by 99.9%, 10 mM PIPES, 5 mM glucose, pH 7.4, 2 h 37° C.
Protocol: (§1) To test microbicidal activities, the activities of each peptide against S. aureus 502a, E. coli ML35, and C. albicans 16820 were assessed essentially as described in Example I with modifications to allow for simultaneous analysis of all twenty peptides. Briefly, two-fold serial dilutions of each peptide (in 0.01% acetic acid 0.062-8.0 μg/ml final concentrations) were mixed with 10 mM PIPES, pH 7.4, containing 5 mM glucose in sterile polystyrene 96-well plates (Corning, N.Y.). Aliquots of log-phase bacteria or yeast were added to a 2×10^6 CFU/ml final density as determined by A620. After 2 h incubation at 37° C., 15 μl of the incubation mixture was removed and serially diluted ten-fold from 1:10 to 1:10^6 in trypticase soy broth (bacteria) or Sabaraud dextrose broth (C. albicans). The diluted cell suspensions were grown 24-48 h at 37° C. until cell pellets were visible. Microbicidal activity was determined as absence of growth and was correlated to CFU/ml in control experiments where activity was determined in parallel by colony counting (see Example I). Absence of growth at the 1:10^3 dilution is equivalent to a 3-log reduction in microbial viability.
(§2) The microbicidal activities of each peptide against E. coli ML35, S. aureus 502a, and C. albicans 16820 were determined with cell-suspension microbicidal assays in 96-well plates (see Example II). Briefly, log-phase cells (2×10^6 CFU/ml final) were incubated with increasing concentrations of peptides (0-8 μg/ml final) in 50 μl of 10 mM PIPES, 5 mM glucose, pH 7.4, for 2 h at 37° C. Incubation mixtures were diluted 1:10 to 1:10^6 with trypticase-soy broth (bacteria) or Sabaraud dextrose broth (fungi) and incubated at 37° C. for 24-48 h until cell pellets were visible. Microbicidal activities (confirmed in control experiments as described in Example II) were determined as the absence of a cell pellet in the various dilutions. Peptide concentrations that caused ≧99.9% killing (absence of a cell pellet at 1:10^3 dilution) were taken as the minimum microbicidal concentrations (MMC).

[2] = system: E. coli ML35; assay: Cell-suspension microbicidal assay (MMC); type: cell-based, Escherichia coli; conditions: for MMC, E. coli: lowest concentration that reduced cell viability by 99.9%, 10 mM PIPES, 5 mM glucose, pH 7.4, 2 h 37° C.
Protocol: as §1, §2

[3] = system: C. albicans 16820; assay: Cell-suspension microbicidal assay (MMC); type: cell-based, Candida albicans; conditions: for MMC, C. albicans: lowest concentration that reduced cell viability by 99.9%, 10 mM PIPES, 5 mM glucose, pH 7.4, 2 h 37° C.
Protocol: as §1, §2

[4] = system: S. aureus 502a, E. coli ML35, and C. albicans 16820; assay: Cell-suspension microbicidal assay, statements across the test organisms (lowest MMC, overall ranges); type: cell-based; conditions: for M: peptide concentration that kill 99.9% of either S. aureus, E. coli, or C. albicans, lowest MMC value
Protocol: as §1, §2
(§3) A selectivity index (SI=H/M) was calculated as a ratio of a peptide concentration (μg/ml) that causes 3% hemolysis (H) obtained from a dose-dependent hemolysis plot over 0.3 to 3 μg/ml of each peptide in PBS and the lowest MMC value (M) for any of the three test microorganisms (see Example II; Table 2).

[5] = system: S. aureus 502a; type: cell-based, Staphylococcus aureus
Protocol: Dose-dependent staphylocidal activity of each peptide was determined in assays containing 10% normal human serum. Percentages of killing are relative to activities of peptide-containing incubations in which serum was omitted.
(§4) To determine the effects of serum, salt, calcium chloride and magnesium chloride on microbicidal activities, peptide activities were determined in assays containing varying ionic strength, divalent cations, and serum. The effect of serum on staphylocidal activity of each peptide was determined by incubating 1×10^6 CFU/ml of S. aureus 502a with increasing peptide concentrations (0.5-4 μg/ml) in 10 mM PIPES, pH 7.4, containing 10% normal human serum for 2 h at 37° C. The effect of sodium chloride on staphylocidal activities was assessed with 5 μg/ml of each peptide in 10 mM PIPES, pH 7.4, containing varying concentrations of sodium chloride (0-160 mM). Effects of divalent cations, CaCl2, or MgCl2 (0-5.6 mM) were assessed in microbicidal assays against E. coli ML35. Bactericidal activities were determined by colony counting (see Example II), and microbicidal potencies were expressed as percent killing as follows:
(§5) [formula] where A=surviving bacteria (CFU/ml) after initial incubation with each peptide in buffer containing serum, salt, or divalent cations and Ao=bacterial CFU/ml in the “no-peptide” controls.

[6] = system: E. coli ML35; assay: Membrane permeabilization assay (ONPG hydrolysis); type: cell-based, Escherichia coli; conditions: rates at 1 μg/ml concentration of each peptide
Protocol: For the membrane permeabilization assay, the permeabilization of bacterial cytoplasmic membranes was determined by measuring hydrolysis of o-nitrophenyl-β-D-galactcpyranoside (ONPG) in E. coli ML35 (Sitaram et al., FEBS Lett. 303:265-268 (1992); Lehrer et al.,. J. Immunol. Methods 108:153-158 (1988)). Peptides dissolved in 5 μl of 0.01% acetic acid were two-fold serially diluted with 10 mM PIPES, pH 7.4, containing 3 mM ONPG, to final peptide concentrations of 0-8.0 μg/ml. Log-phase bacteria, prepared in PIPES buffer as described for the microbicidal assay (see Example I), were added to 1×10^6 CFU/ml final density in a final volume of 90 μl. ONPG hydrolysis was measured at 405 nm for 60 min using a SpectraMAX 190 plate reader and SOFTmaxPRO 3.1 (Molecular Devices Corp., CA). […]

[7] = system: human erythrocytes; assay: Hemolysis assay; type: cell-based
Protocol: For the hemolysis assay, the hemolytic activity of each peptide was determined by the method of Tam et al. (Tam et al., Eur. J. Biochem. 267:3289-3300 (2000)). Blood was obtained from a healthy donor in accordance to a protocol approved by the Institutional Review Board. Normal human serum was prepared from the same individual and stored at −20° C. Red blood cells (RBC) were prepared from blood collected in EDTA. RBC were harvested at 234×g for 10 min, 22° C., washed four times with 10 mM sodium phosphate, 150 mM NaCl, pH 7.4 (PBS), containing 4 mM EDTA and resuspended in PBS without EDTA. Peptides dissolved in 10 μl 0.01% HOAc were diluted with PBS to final concentrations of 0.3-100 μg/ml. RBC were added to a 2% final density in 100 μl. Incubation mixtures were also prepared with 10% serum. After 1 h incubation at 37° C., the cell suspensions were centrifuged at 234×g for 10 min, 22° C. Fifty-μl samples of the supernatants were removed, and the absorbance at 405 nm (A) was measured. Hemolytic activity of each peptide was calculated relative to lysis by 1% NP-40 using the following formula:
as §3

[8] = system: S. aureus 502a; type: cell-based, Staphylococcus aureus; conditions: physiologic salt / various concentrations of salt; FIG. 6
Protocol: The activity of each peptide (5 μg/ml) was determined in assays containing increasing concentrations of sodium chloride. Staphylocidal activities were expressed as percentages of killing obtained in the absence of additional NaCl.
as §4, §5

[9] = at 8 μg/ml, the highest concentration tested

Structure (SMILES)	Killing percentage, S. aureus (MMC not reached) [1, 9]	fold lower staphylocidal activity than RTD-3 and PG-1 ([1]; from MMC, Table 2)	MMC, S. aureus [1] [µg/mL]	MMC, E. coli [2] [µg/mL]	MMC, C. albicans [3] [µg/mL]	99.9% kill against one of the bacterial organisms [4, 9]	M [4] [µg/mL]	inhibition of bactericidal activity in serum ([5]; 502a)	ONPG hydrolysis [6]	enhancement of staphylocidal activity by serum ([5]; 10% normal human serum, FIG. 7) [%]	staphylocidal activity in assay containing serum (in words) ([5]; 10% normal human serum, FIG. 7)	fold lower staphylocidal potency than native PG-1 ([1]; from MMC, Table 2) [fold]	fold lower potency against E. coli than native PG-1 ([2]; from MMC, Table 2)	fold lower candidacidal potency than native PG-1 ([3]; from MMC, Table 2)	fold less microbicidal than PG-1 ([4]; Table 5)	percent less hemolytic than native PG-1 [7]	fold higher MMC than the native cyclic peptide ([4]; de-cyclized analog versus native θ-defensin, three test organisms)	effect of salt on microbicidal activity (in words) [8]
CC(C)C[C@@H]1NC(=O)[C@@H]2CSSC[C@H](NC(=O)[C@H](CCCNC(=N)N)NC(=O)[C@@H](NC(=O)[C@@H](NC(=O)CNC(=O)[C@@H](N)CCCNC(=N)N)C(C)C)CSSC[C@@H](C(=O)N[C@@H](CCCNC(=N)N)C(N)=O)NC1=O)C(=O)N[C@@H](CC(C)C)C(=O)N[C@H]1CSSC[C@H](NC(=O)[C@H](C(C)C)NC(=O)CNC(=O)[C@H](CCCNC(=N)N)NC(=O)[C@H](CCCNC(=N)N)NC1=O)C(=O)N[C@@H](CCCNC(=N)N)C(=O)N2 [3:1 aRTD-3-NH] (H-RGVCRCLCRRGVCRCLCR-NH2; disulfide 4-17, 6-15, 8-13; N-terminus assumed)	(99%)^b	at least 8 fold	> 8	1.0	0.8	did not achieve a 99.9% kill	0.75	20-50%	9.4 (A405/sec) · 10^−5									
CC(C)C[C@H](NC(=O)[C@H](CCCNC(=N)N)NC(=O)CNC(=O)CN)C(=O)N[C@H]1CSSC[C@@H](C(=O)N[C@H](C(=O)NCC(=O)N[C@@H](CCCNC(=N)N)C(=O)N[C@@H](CCCNC(=N)N)C(N)=O)C(C)C)NC(=O)[C@H](C(C)C)NC(=O)[C@@H]2CSSC[C@H](NC(=O)[C@H](Cc3ccc(O)cc3)NC1=O)C(=O)N[C@@H](CCCNC(=N)N)C(=O)N[C@@H](CCCNC(=N)N)C(=O)N[C@@H](CCCNC(=N)N)C(=O)N[C@@H](Cc1ccccc1)C(=O)N2 [4:4 PG-1-NH] (H-GGRLCYCRRRFCVCVGRR-NH2; disulfide 5-14, 7-12; N-terminus assumed)			0.5	1.0	1.5		0.5		12.4 (A405/sec) · 10^−5	~40								
CC(C)C[C@H](NC(=O)[C@H](CCCNC(=N)N)NC(=O)CNC(=O)CNC(=O)[C@@H](N)CCCNC(=N)N)C(=O)N[C@H]1CSSC[C@@H](C(=O)N[C@H](C(=O)NCC(=O)N[C@@H](CCCNC(=N)N)C(N)=O)C(C)C)NC(=O)[C@H](C(C)C)NC(=O)[C@@H]2CSSC[C@H](NC(=O)[C@H](Cc3ccc(O)cc3)NC1=O)C(=O)N[C@@H](CCCNC(=N)N)C(=O)N[C@@H](CCCNC(=N)N)C(=O)N[C@@H](CCCNC(=N)N)C(=O)N[C@@H](Cc1ccccc1)C(=O)N2 [PG-1, reference compound]			0.4		0.8		0.38		11.3 (A405/sec) · 10^−5		unaffected							
CC(C)C[C@H](NC(=O)[C@H](CCCNC(=N)N)NC(=O)CNC(=O)CNC(=O)[C@@H](N)CCCNC(=N)N)C(=O)N[C@H]1CSSC[C@@H](C(=O)N[C@H](C(=O)NCC(=O)N[C@@H](CCCNC(=N)N)C(=O)O)C(C)C)NC(=O)[C@H](C(C)C)NC(=O)[C@@H]2CSSC[C@H](NC(=O)[C@H](Cc3ccc(O)cc3)NC1=O)C(=O)N[C@@H](CCCNC(=N)N)C(=O)N[C@@H](CCCNC(=N)N)C(=O)N[C@@H](CCCNC(=N)N)C(=O)N[C@@H](Cc1ccccc1)C(=O)N2 [PG-1-OH] (H-RGGRLCYCRRRFCVCVGR-OH; disulfide 6-15, 8-13; N-terminus assumed)			2.0	1.5	1.5		1.5		10.7 (A405/sec) · 10^−5	25		5	1- to 2 fold	1- to 2 fold	2-3 fold	about 50%		
CC(C)C[C@@H]1NC(=O)[C@@H]2CSSC[C@H](NC(=O)[C@H](CCCNC(=N)N)NC(=O)[C@@H](NC(=O)[C@@H](NC(=O)CN)C(C)C)CSSC[C@@H](C(=O)N[C@@H](CCCNC(=N)N)C(=O)N[C@@H](CCCNC(=N)N)C(=O)O)NC1=O)C(=O)N[C@@H](CC(C)C)C(=O)N[C@H]1CSSC[C@H](NC(=O)[C@H](C(C)C)NC(=O)CNC(=O)[C@H](CCCNC(=N)N)NC(=O)[C@H](CCCNC(=N)N)NC1=O)C(=O)N[C@@H](CCCNC(=N)N)C(=O)N2 [aRTD-3-OH] (H-GVCRCLCRRGVCRCLCRR-OH; disulfide 3-16, 5-14, 7-12; N-terminus assumed)			1.5		1.5		1.5										1-2 fold	least affected
